The values that follow come from ChEMBL document CHEMBL3396976, “Design, synthesis and evaluation of isoxazolo[5,4-d]pyrimidin-4(5H)-one derivatives as antithrombotic agents” (Bioorg Med Chem Lett, 2015).

Activity calls are given as the source filed them. The rule behind the calls is not given here.

Assay [1] addresses T1, Coagulation factor X (Homo sapiens, UniProt P00742). The assay is described as follows: Inhibition of human F10a using chromogenic substrate S-2765 preincubated for 10 mins at 0.1 uM by spectrophotometry.
The species named for assay [2] is Homo sapiens. The assay is described as follows: Selectivity ratio of IC50 for thrombin (unknown origin) to IC50 for human F10a.
For another assay, the system named is Plasma. The assay is described as follows: Anticoagulant activity in human plasma assessed as concentration required to double prothrombin time. The format is functional.
The target of assay [3] is T1, Coagulation factor X. The assay is described as follows: Inhibition of human F10a using chromogenic substrate S-2765 preincubated for 10 mins by spectrophotometry.
Assay [4] is filed under the species Homo sapiens. The assay is described as follows: Selectivity ratio of IC50 for trypsin (unknown origin) to IC50 for human F10a.
The target in a further assay is Prothrombin (Homo sapiens, UniProt P00734). The assay is described as follows: Inhibition of thrombin (unknown origin) using chromogenic substrate S-2238 by spectrophotometry.

As a reminder, the inhibition is the share of the control response that was lost under treatment. One may read the IC50 as the concentration at which inhibition is half-maximal. Read a low IC50 as inhibition by little substance.

T1 sequence (P00742 41-179 limits assumed): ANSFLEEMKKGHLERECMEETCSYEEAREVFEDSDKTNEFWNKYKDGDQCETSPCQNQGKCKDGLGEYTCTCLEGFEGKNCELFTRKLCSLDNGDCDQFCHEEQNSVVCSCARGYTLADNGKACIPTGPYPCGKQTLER
T1 sequence (P00742 235-488 limits assumed): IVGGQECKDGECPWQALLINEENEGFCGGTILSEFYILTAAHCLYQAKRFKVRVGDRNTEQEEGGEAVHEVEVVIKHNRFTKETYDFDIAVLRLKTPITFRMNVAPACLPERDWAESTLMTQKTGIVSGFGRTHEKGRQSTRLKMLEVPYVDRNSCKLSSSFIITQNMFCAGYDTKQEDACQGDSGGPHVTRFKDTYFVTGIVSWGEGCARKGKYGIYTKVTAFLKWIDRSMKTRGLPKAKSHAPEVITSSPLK

As for `CCc1nc2onc(-c3ccc(OC)cc3)c2c(=O)n1-c1ccc(N2CCOCC2=O)cc1`, the inhibition against Coagulation factor X [1] came to 36%.
Regarding `CCc1nc2onc(-c3ccc(C)cc3)c2c(=O)n1-c1ccc(N2CCOCC2=O)cc1`, the inhibition result on Coagulation factor X [1] is “inactive”.
Same read-out and setting: in the case of `COc1ccc(-c2noc3ncn(-c4ccc(C(=O)Nc5ccccc5)cc4)c(=O)c23)cc1` it was 81%; in that of `COc1ccc(-c2noc3ncn(-c4ccc(C(=O)N5CCOCC5)cc4)c(=O)c23)cc1`, 37%.
`CCc1nc2onc(-c3ccc(Cl)cc3)c2c(=O)n1-c1ccc(N2CCOCC2=O)cc1`: the inhibition entry at Coagulation factor X [1] was “inactive”.
Consider `O=C1COCCN1c1ccc(-n2cnc3onc(-c4ccc([N+](=O)[O-])cc4)c3c2=O)cc1`, for which the inhibition entry on Coagulation factor X [1] is “inactive”.
On Coagulation factor X [1], `CCN(CC)C(=O)c1ccc(-n2cnc3onc(-c4ccc(OC)cc4)c3c2=O)cc1` registered an inhibition of 83%.
The same measure, in the same setting: under `Cc1nc2onc(-c3ccccc3)c2c(=O)n1-c1ccc(N2CCOCC2=O)cc1` stands “inactive”; under `Cc1nc2onc(-c3ccc(Cl)cc3)c2c(=O)n1-c1ccc(N2CCOCC2=O)cc1`, 41%.
Compound `O=C1COCCN1c1ccc(-n2cnc3onc(-c4ccc(Cl)cc4)c3c2=O)cc1` registered an inhibition against Coagulation factor X [1] of 56%.
`COc1ccc(-c2noc3ncn(-c4ccc(C(=O)N(C)c5ccccc5)cc4)c(=O)c23)cc1`: the inhibition against Coagulation factor X [1] was 47%.
In turn, `CCc1nc2onc(-c3ccc(OC)c(OC)c3)c2c(=O)n1-c1ccc(N2CCOCC2=O)cc1` gave an inhibition at Coagulation factor X [1] of 42%.
As for `CCCNC(=O)c1ccc(-n2cnc3onc(-c4ccc(OC)cc4)c3c2=O)cc1`, the inhibition on Coagulation factor X [1] was 83%.
Turning to `Cc1ccc(-c2noc3nc(C)n(-c4ccc(N5CCOCC5=O)cc4)c(=O)c23)cc1`, the inhibition result on Coagulation factor X [1] is “inactive”.
In the case of `CCc1nc2onc(-c3ccccc3)c2c(=O)n1-c1ccc(N2CCOCC2=O)cc1`, the inhibition result at Coagulation factor X [1] was “inactive”.
On to `COc1ccc(-c2noc3ncn(-c4ccc(C(=O)NC5CCCCC5)cc4)c(=O)c23)cc1`, for which the inhibition on Coagulation factor X [1] came to 72%.
Take `O=C(NC[C@H]1CN(c2ccc(N3CCOCC3=O)cc2)C(=O)O1)c1ccc(Cl)s1`: at Coagulation factor X [1], the inhibition result is “Active”.
The compound `COc1ccc(-c2noc3ncn(-c4ccc(C(=O)NC5CCCC5)cc4)c(=O)c23)cc1` yielded an inhibition on Coagulation factor X [1] of 75%.
As to `COc1ccc(-c2noc3ncn(-c4ccc(C(=O)N5CCCC5)cc4)c(=O)c23)cc1`, the inhibition against Coagulation factor X [1] was 46%.
Take `CCc1nc2onc(-c3ccc([N+](=O)[O-])cc3)c2c(=O)n1-c1ccc(N2CCOCC2=O)cc1`: the inhibition result at Coagulation factor X [1] was “inactive”.
On to `COc1ccc(-c2noc3nc(C)n(-c4ccc(N5CCOCC5=O)cc4)c(=O)c23)cc1OC`, for which the inhibition against Coagulation factor X [1] was determined as 47%.
With `Cc1nc2onc(-c3ccc([N+](=O)[O-])cc3)c2c(=O)n1-c1ccc(N2CCOCC2=O)cc1`, the inhibition entry on Coagulation factor X [1] is “inactive”.
Still for that read-out and setting: in the case of `O=C1COCCN1c1ccc(-n2cnc3onc(-c4ccccc4)c3c2=O)cc1` it was 27%; in that of `COc1ccc(-c2noc3nc(C)n(-c4ccc(N5CCOCC5=O)cc4)c(=O)c23)cc1`, 55%; in that of `COc1ccc(-c2noc3ncn(-c4ccc(N5CCOCC5=O)cc4)c(=O)c23)cc1OC`, 77%.
Regarding `COc1cc(-c2noc3ncn(-c4ccc(N5CCOCC5=O)cc4)c(=O)c23)ccc1OC(C)=O`, the Ratio IC50 in the assay listed under Homo sapiens [2] and in the assay filed under Homo sapiens [4] was over 1000 throughout. The 2PT in the assay with Plasma came to 2.12 µM. The IC50 against Coagulation factor X [3] was 13 nM; against Prothrombin, over 20000 nM. Moreover, on Coagulation factor X [1], the inhibition was determined as 98%.
As to `COc1ccc(-c2noc3ncn(-c4ccc(C(=O)Nc5ccccn5)cc4)c(=O)c23)cc1`, the Ratio IC50 in the assay filed under Homo sapiens [2] and in the assay listed under Homo sapiens [4] was over 1000 each time. The 2PT with Plasma was found to be 3.37 µM. The IC50 at Coagulation factor X [3] is 18 nM; at Prothrombin, over 20000 nM. In addition, at Coagulation factor X [1], the inhibition came to 89%.
On to `COc1ccc(-c2noc3ncn(-c4ccc(C(=O)N5CCCCC5)cc4)c(=O)c23)cc1`, for which the inhibition against Coagulation factor X [1] was 54%.
Still for that read-out and setting: under `COc1ccc(-c2noc3ncn(-c4ccc(N5CCOCC5=O)cc4)c(=O)c23)cc1` stands 78%; under `Cc1ccc(-c2noc3ncn(-c4ccc(N5CCOCC5=O)cc4)c(=O)c23)cc1`, 43%.
